In general, Kd refers to the equilibrium constant for the complex coming apart. Low values mean higher affinity, high ones lower affinity.

The values below come from patent publication US20230255906A1, “Targeting Serpin B9 in Cancer” (The Brigham and Women`s Hospital, Inc., priority 2020, published 2023).

The target in assay [1] is T1, MBP-Sb9 (Homo sapiens, UniProt P50453).
T1 construct: made in house
T1 sequence (P50453 2-376): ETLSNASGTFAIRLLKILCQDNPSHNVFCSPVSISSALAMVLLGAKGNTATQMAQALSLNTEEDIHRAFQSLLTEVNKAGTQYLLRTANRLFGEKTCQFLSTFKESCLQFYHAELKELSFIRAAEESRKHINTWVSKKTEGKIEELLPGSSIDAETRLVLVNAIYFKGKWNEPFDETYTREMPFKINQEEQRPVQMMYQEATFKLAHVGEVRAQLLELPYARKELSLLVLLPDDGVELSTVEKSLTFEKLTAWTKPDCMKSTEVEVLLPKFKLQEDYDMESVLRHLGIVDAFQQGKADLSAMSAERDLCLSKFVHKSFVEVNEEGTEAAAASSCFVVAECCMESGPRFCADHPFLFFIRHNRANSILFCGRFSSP
In words: Saturation-Transfer Difference (STD) NMR assay. It is filed as binding. The source says:
The Saturation-Transfer Difference (STD) NMR assay was used to evaluate the binding of the compound of Formula (III) to Sb9. […] The saturation period was 3.0 seconds with irradiation at 0 ppm (on-resonance excitation) and −20 ppm (off-resonance excitation). The number of scans was 160 for the on and off-resonance spectra, respectively. Spectra were processed using Topspin software and apodized with exponential multiplication with 1.0 Hz line-broadening.
The Saturation-Transfer Difference (STD) NMR assay was used to evaluate the binding of the compounds of Formulas (I) and (II) to Sb9. […] The saturation period was 3.0 seconds with irradiation at 0.7 ppm (on-resonance excitation) and 20 ppm (off-resonance excitation). The number of scans was 800. The spectra were processed using Topspin software with 1.0 Hz line-broadening.
The Saturation-Transfer Difference (STD) NMR assay as described herein was used to evaluate the binding of the compound of Formula (III) to Sb9.

Assay [2] concerns the target T2, MBP-Sb9 (Homo sapiens, UniProt P50453).
T2 construct: made in house
In words: Surface plasmon resonance (SPR) binding. Conditions: 25° C., 1:1 Langmuir model. The procedure:
Surface plasmon resonance (SPR) measures change in refractive index on a biosensor surface, as analytic mass accumulates via binding to an attached ligand. This allows derivation of affinity (KD) from measured kinetic rates of association (ka) and dissociation (kd). All assays were run at 25° C. on a BiOptix 404pi. An NTA biosensor chip was used in this study to pre-concentrate 3 μM MBP-Sb9 via an N-terminal His-tag. MBP-Sb9 was covalently immobilized with EDC/NHS in 20 mM HEPES pH 8.0, 150 mM NaCl, 0.05% Tween-20, 5 mM β-ME to 10,000 to 15,000 RUs. MBP was similarly immobilized on a separate channel as a negative control. Compounds were injected as 3-fold serial dilutions in duplicate starting at 200 μM. Injections were done at 50 μL/min for 60 seconds, followed by a 120 second dissociation in 20 mM HEPES, pH 8.0, 150 mM NaCl, 0.05% Tween-20, 5 mM j-ME, 1% DMSO. A series of five DMSO standards between 0.5% and 1.5% were included with each run to correct for bulk refractive index. Sensorgrams were analyzed using Scrubber 2 software with a double reference and fit to a 1:1 Langmuir model to determine the interaction parameters KD, ka, and kd.
T2 sequence (P50453 whole entry): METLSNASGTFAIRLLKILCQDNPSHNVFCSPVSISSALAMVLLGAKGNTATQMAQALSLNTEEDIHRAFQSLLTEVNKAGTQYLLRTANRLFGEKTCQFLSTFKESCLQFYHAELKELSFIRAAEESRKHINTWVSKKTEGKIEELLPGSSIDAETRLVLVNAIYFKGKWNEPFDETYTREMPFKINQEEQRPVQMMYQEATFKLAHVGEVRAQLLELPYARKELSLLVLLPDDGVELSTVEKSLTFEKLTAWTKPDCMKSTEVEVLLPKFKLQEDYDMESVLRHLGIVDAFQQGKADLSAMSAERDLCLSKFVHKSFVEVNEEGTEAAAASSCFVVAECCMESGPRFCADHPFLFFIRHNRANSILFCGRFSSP
In general terms: SPR reads the build-up and loss of mass on a sensor chip optically.

The target in the next assay is MBP (Escherichia coli, UniProt P0AEX9). The assay is described as follows: SPR negative control channel. The format is binding. The procedure: FIG. 4B. Sensorgrams of compounds 3,4-dihydroxybenzoic acid (top), 3-oxo-1-indancarboxylic acid (middle), and the compound of Formula (III) (bottom) show the binding of 3,4-dihydroxybenzoic acid and the compound of Formula (III) to Sb9 (top), but not to MBP (bottom) by Surface Plasmon Resonance (SPR).
All assays were run at 25° C. on a BiOptix 404pi. An NTA biosensor chip was used in this study to pre-concentrate 3 μM MBP-Sb9 via an N-terminal His-tag. MBP-Sb9 was covalently immobilized with EDC/NHS in 20 mM HEPES pH 8.0, 150 mM NaCl, 0.05% Tween-20, 5 mM β-ME to 10,000 to 15,000 RUs. MBP was similarly immobilized on a separate channel as a negative control.

The test system of another assay is A375 human melanoma. The assay is described as follows: A375 human melanoma tumors in NSG mice. It is filed as in vivo, mouse. Particulars: 300 μg i.p. bid for 14 days. The procedure: FIGS. 10D-10E. […] Data are expressed as means±SEM. *P<0.05 (Student's t-test). Mean survival time (MST) is increased in mice treated with the compound of Formula (III) as compared to Control group (FIG. 10E).
Mice were anesthetized with isoflurane, and tumor cell lines (B16, A375, and 4T1) were gently injected subcutaneously in the flanks or mammary glands of mice. One hundred thousand cells (1×10^5 cells) were injected per mouse for most of the experiments. However, twenty-five thousand cells (25×10^3 cells) were injected per mouse for the experiments using the compound of Formula (III). Upon 4 hrs post-implantation, 300 μg of the compound of Formula (III) was administered twice a day intraperitoneally for 14 days. Tumor growth was monitored three times per week by digital caliper (Fisherbrand™ Traceable™ Digital Calipers).
To assess if the anti-tumor effects of the compound of Formula (III) were generalizable to human diseases, the efficacy in an NSG humanized mouse model of A375 human melanoma was also tested. […] Thus, the compound of Formula (III) can inhibit Sb9 in melanoma tumor cells and render them susceptible to GrB-mediated apoptosis.

A further assay deals with LAMP1. In words: LAMP1 / lysosome fluorescence micrographs. The format is cell-based. An excerpt: FIG. 4H. […] DAPI was used to counterstain the cell nuclei. Scale bar: 10 μm.
Lysosomes have a pH of 4 and are the most acidic compartment within cells. Therefore, it was hypothesized that lysosomes contain an environment that is conducive for the binding between the compound of Formula (III) and Sb9. Both Sb9 and GrB were co-localized in the lysosomes of B16 melanoma cells (FIG. 4F).

For the compound `O=C(O)c1ccc2ncoc2c1` [Formula (III), 1,3-benzoxazole-6-carboxylic acid], the “binding to MBP-Sb9 by STD NMR” value on MBP-Sb9 [1] (420 μM compound, 45 μM Sb9 protein, PBS pH 7.0, 25° C.) is given as “confirmed the binding activity”. For the same compound, the “pH dependence of binding to MBP-Sb9 by STD NMR” value on MBP-Sb9 [1] (450 μM compound, 45 μM Sb9, various pH values) is “enhanced significantly at lower pH”. Further, at MBP-Sb9 [2], the Kd turned out to be 273 µM. For the same compound, the “binding to MBP (negative control)” value at MBP is reported as “not to MBP”. Also, in the assay with A375 human melanoma, the MST vs control result is listed as “increased MST” and the “reduction of size of human melanoma tumors vs controls” value was 2.1 fold. In the assay on LAMP1, the “LAMP1 expression and lysosome areas” value is “significantly increased the LAMP1 expressions”.
